Results: patent publication US20260355330A1, “CELL PENETRATING PEPTIDES AND USES THEREOF” (VECTIOPEP OÜ, priority 2022, published 2026)

What was measured:
[1] = tested on: CHO-K1 cells; assay: Delivery of reporter mRNA with CPPs in cell culture (luciferase luminescence 24 h post-transfection); assay type: cell-based; conditions: for Average RLU/mg (reporter levels post-transfection of mRNA): firefly luciferase mRNA, 0.1 μg per well, charge ratio 3:1, serum containing media, 24 h, RLU normalised to total protein in lysate; for Efficiency of mRNA transfection/delivery: FIG. 1 / Table 2, cell culture
Method: FIG. 1: Delivery of reporter mRNA with CPPs in cell culture—evaluation of reporter levels post-transfection (relative light units normalised to total protein in the cell lysate (RLU/mg)). Naked mRNA treated cells were used as controls and Lipofectamine3000 (LF3000) was used to compare the transfection efficacy with a liposome-based transfection reagent.
Adherent CHO-K1 cells were grown in Dulbecco's Modified Eagle's Medium (DMEM), which were supplemented with 0.1 mM non-essential amino acids, 1.0 mM sodium pyruvate, 100 U/ml penicillin, and […]. For complete media, 10% (final) fetal bovine serum (FBS) was added. Cells were maintained in a humidified incubator at 37 °C, 5% CO2. Cell viability and confluence was assessed daily and the cell density was reduced regularly. For cell counting, we used the CytoSMART cell counter accompanied by 0.4% trypan blue staining prior measurement. The multi-well plates with cell cultures used for experiments were incubated in a humidified incubator at 37 °C, 5% CO2.
For in vitro experiments 0.1 μg of nucleic acid (plasmid DNA (pDNA) or mRNA) was used per 96-well plate well. For CPP/NA complex formation, the diluted NA was mixed with CPP in water. Complexes were formed based on the theoretical charge ratio (CR) of positive charges from the peptide in excess to the negative charges from nucleic acid backbone, at charge ratio 3:1 with peptide in excess. Commercial reagent Lipofectamine3000 (LF3000) was used according to the manufacturer's recommendations for the transfection of adherent cells.
For reporter luminescence (expressed from firefly luciferase encoding mRNA or plasmid pDNA) assessment in adherent cell culture, 10,000 cells per 96-well plate well were seeded in 100 μl of media one day prior to transfection. Shortly before transfection, cell media was replaced with 100 μl of serum containing (10% foetal bovine serum) DMEM media. CPPs and mRNA or pDNA were mixed at a charge ratio 3:1 in ultrapure water and incubated at room temperature before addition to cells in serum containing media. Cells were transfected with 0.1 μg of mLuc per well.
24 hours post-transfection, the media was aspirated, cells were washed with 1×PBS, and 30 μl of lysis buffer (0.1% Triton X100 in 1×PBS) was added. Cells were incubated with lysis buffer for 20 min. to lyse the cells. From the lysate, 20 μl was transferred to a black frame white well 96-well plate for luminescence measurement after addition of substrate luciferin (PerkinElmer) in buffer. The luminescence signal was detected with GloMax® 96 microplate luminometer equipped with GloMax® 1.9.2 software (Promega). RLU values were converted to RLU/mg by normalization to total protein in cell lysate, reflecting total number of cells. For protein detection, a Pierce™ BCA Protein Assay Kit was used.
The present inventors have previously reported CPPs developed from the NickFect (NF) and PepFect (PF) families for plasmid (pDNA), siRNA and miRNA delivery (see, e.g. WO 2020/144317, WO 2010/039088 and WO 2012/113846). With the emergence of mRNA-based therapeutics, it was decided to investigate peptides for their ability to deliver mRNA. It was assumed that CPPs that are efficient for siRNA and miRNA delivery, e.g. histidine containing CPPs (Porosk et. al. (2019)), may be good candidates for the delivery of mRNA. Therefore, CPPs from each main family (NF55-, PF14- and NF70-derived CPPs) were tested for mRNA delivery/transfection. Naked mRNA treated and untreated cells were used as control groups. LF3000 was used to compare the transfection efficacy of liposome-based transfection reagents with the CPPs (FIG. 1).

[2] = tested on: spleen of BALB/c mice; assay: In vivo delivery of mRNA with CPPs - reporter levels in the spleen; conditions: for Reporter levels in the spleen (RLU): mRNA, tail vein injection, spleens harvested 16 hours after single injection, whole tissue homogenate
Method: FIG. 5: Delivery of mRNA with CPPs in vivo—reporter levels in the spleen. Spleens were harvested post mortem 16 hours post-injection. The reporter levels (RLU) were evaluated from the whole tissue homogenate.
The transfection complexes (CPP/mRNA) were formed using 10 μg of mRNA mixed with each peptide at indicated charge ratios (CRs) in MQ water in a final volume of 100 μl. CRs were calculated theoretically and account for both the positive charges of the peptide and negative charges of the nucleic acid. The transfection complexes (CPP/mRNA and CPP/pDNA) were formed using 50 μg of mRNA mixed with each peptide at indicated charge ratios (CRs) in MQ water in a final volume of 168 μl. The complexes were incubated for 30 minutes at room temperature and then mixed with equal volume of 10% glucose (resulting in a final solution of 5% glucose in a total volume of 200 μl for 10 μg dose groups and 336 μl for 50 μg dose groups) and immediately injected intravenously via the tail vein.
The reporter gene (luciferase) expression levels were evaluated from the tissue homogenate post mortem 16-24 h after single injection.
CPPs and mRNA complexes were injected through the tail vein of BALB/c mice, spleens were harvested 16 hours after the single injection and reporter signal was measured from the whole tissue homogenate (FIG. 5 and Table 5).

CCCCCCCCCCCCCCCCCC(=O)N[C@@H](C)C(=O)NCC(=O)N[C@@H](Cc1ccc(O)cc1)C(=O)N[C@@H](CC(C)C)C(=O)N[C@@H](CC(C)C)C(=O)NCC(=O)NCCC[C@H](N)C(=O)N[C@H](C(=O)N[C@@H](CC(N)=O)C(=O)N[C@@H](CC(C)C)C(=O)N[C@@H](CCCCN)C(=O)N[C@@H](C)C(=O)N[C@@H](CC(C)C)C(=O)N[C@@H](C)C(=O)N[C@@H](C)C(=O)N[C@@H](CC(C)C)C(=O)N[C@@H](C)C(=O)N[C@@H](C)C(=O)N[C@@H](CCCCN)C(=O)N[C@H](C(=O)N[C@@H](CC(C)C)C(N)=O)[C@@H](C)CC)[C@@H](C)CC [NF54]
Average RLU/mg (reporter levels post-transfection of mRNA) [1]: 2 160 000 000 RLU/mg
Efficiency of mRNA transfection/delivery ([1]; in words): the most efficient
Delivery of mRNA compared to NF55 ([1]; in words, comparator NF55): significantly improved delivery of mRNA over NF55
Efficacy of mRNA delivery into the spleen in vivo ([2]; in words, FIG. 5 / Table 5): delivered mRNA into the spleen in vivo with high efficacy
Delivery of mRNA in vivo compared to NF54 and/or NF55 ([2]; in words, comparator NF54 and/or NF55): good improvement in mRNA delivery in vivo over NF55
Reporter levels in the spleen (RLU) [2]: 225 675 RLU

CCCCCCCCCCCCCCCCCCCC(=O)N[C@@H](C)C(=O)NCC(=O)N[C@@H](Cc1ccc(O)cc1)C(=O)N[C@@H](CC(C)C)C(=O)N[C@@H](CC(C)C)C(=O)NCC(=O)NCCC[C@H](N)C(=O)N[C@H](C(=O)N[C@@H](CC(N)=O)C(=O)N[C@@H](CC(C)C)C(=O)N[C@@H](CCCCN)C(=O)N[C@@H](C)C(=O)N[C@@H](CC(C)C)C(=O)N[C@@H](C)C(=O)N[C@@H](C)C(=O)N[C@@H](CC(C)C)C(=O)N[C@@H](C)C(=O)N[C@@H](CCCCN)C(=O)N[C@@H](C)C(=O)N[C@H](C(=O)N[C@@H](CC(C)C)C(N)=O)[C@@H](C)CC)[C@@H](C)CC [NF410]
Average RLU/mg (reporter levels post-transfection of mRNA) [1]: 1 080 000 000 RLU/mg
Efficiency of mRNA transfection/delivery ([1]; in words): the most efficient
Reporter levels in the spleen (RLU) [2]: 36 670 RLU

CCCCCCCCCCCCCCCC(=O)N[C@@H](C)C(=O)NCC(=O)N[C@@H](Cc1ccc(O)cc1)C(=O)N[C@@H](CC(C)C)C(=O)N[C@@H](CC(C)C)C(=O)NCC(=O)NCC[C@H](N)C(=O)N[C@H](C(=O)N[C@@H](CC(N)=O)C(=O)N[C@@H](CC(C)C)C(=O)N[C@@H](CCCCN)C(=O)N[C@@H](C)C(=O)N[C@@H](CC(C)C)C(=O)N[C@@H](C)C(=O)N[C@@H](C)C(=O)N[C@@H](CC(C)C)C(=O)N[C@@H](C)C(=O)N[C@@H](CCCCN)C(=O)N[C@@H](C)C(=O)N[C@H](C(=O)N[C@@H](CC(C)C)C(N)=O)[C@@H](C)CC)[C@@H](C)CC [NF422]
Average RLU/mg (reporter levels post-transfection of mRNA) [1]: 159 000 000 RLU/mg

CCCCCCCCCCCCCCCCCCCCCC(=O)N[C@@H](C)C(=O)NCC(=O)N[C@@H](Cc1ccc(O)cc1)C(=O)N[C@@H](CC(C)C)C(=O)N[C@@H](CC(C)C)C(=O)NCC(=O)NCC[C@H](N)C(=O)N[C@H](C(=O)N[C@@H](CC(N)=O)C(=O)N[C@@H](CC(C)C)C(=O)N[C@@H](CCCCN)C(=O)N[C@@H](C)C(=O)N[C@@H](CC(C)C)C(=O)N[C@@H](C)C(=O)N[C@@H](C)C(=O)N[C@@H](CC(C)C)C(=O)N[C@@H](C)C(=O)N[C@@H](CCCCN)C(=O)N[C@@H](C)C(=O)N[C@H](C(=O)N[C@@H](CC(C)C)C(N)=O)[C@@H](C)CC)[C@@H](C)CC [NF423]
Average RLU/mg (reporter levels post-transfection of mRNA) [1]: 556 000 000 RLU/mg

NF72: SEQ ID NO: 15; HHHHHHYHHGO*ILLKALKALAKAIL; control/comparator construct [reference compound]
Average RLU/mg (reporter levels post-transfection of mRNA) [1]: 78 023 RLU/mg
